Measured values as given in patent US20060128643A1, “Compositions containing a combination of a creatine compound and a second agent” (The General Hospital Corporation, priority 1998, published 2006).

Assays:
[1] = system: malonate lesions (striatal); assay: Malonate striatal lesions, creatine and nicotinamide (Example 4); assay type: in vivo, male Sprague-Dawley rats; conditions: creatine 1% in the diet, nicotinamide 0.5% in the drinking water; malonate 3 μmol intrastriatal
Experimental: Studies of the neuroprotective effects of creatine and nicotinamide were carried out in 250 to 300 g male Sprague-Dawley rats. Creatine was administered orally to rats in their feed at a dose of 1% in the diet. Nicotinamide was administered orally with apple juice at a dose of 0.5% in the drinking water. Rats were treated for one week prior to intracerebral injectior˜s. Animals then remained on the control or supplemented diets for one week prior to being sacrificed. Eleven to 12 animals were examined in each experimental group. NMDA was administered at a doge of 240 nmol in 1 μl. AMPA was administered at a dose of 30 nmol in 1 μl and kainic acid was administered at dose of 5 nmol in 1 μl. Malonate was dissolved in distilled deionized water and the pH was adjusted to 7.4 with HCl. Intrastriatal injections of 3 μmol of malonate in 1.5 μl were made with a 10 μl Hamiiton syringe fitted with a 26 gauge blunt tip needle, into the left striatum at the level of the bregma, 2.4 mm lateral to the midline and 4.5 mm ventral to the dura as described previously [Matthews, R. T et al. J. Neurosci., 18 (1998) 156-163]. […] Lesions noted by pale staining were evaluated on the posterior surface of each section using a Bioquant 4 system, which calculates the volume of the lesions in each section, by an experienced histologist blinded to experimental conditions. […]

[2] = system: malonate striatal lesions; conditions: cited from earlier work; for protection against lesions in the malonate animal model: in vivo
[3] = system: MPTP neurotoxicity (dopamine depletion); conditions: animal model of Parkinson's disease; cited from earlier work
MPTP toxicity = conditions: mice; cited from earlier work
[4] = cited from earlier work
creatine kinase = creatine kinase (Oryctolagus cuniculus, UniProt P00563); conditions: cited from earlier work
creatine kinase, sequence (P00563 whole entry): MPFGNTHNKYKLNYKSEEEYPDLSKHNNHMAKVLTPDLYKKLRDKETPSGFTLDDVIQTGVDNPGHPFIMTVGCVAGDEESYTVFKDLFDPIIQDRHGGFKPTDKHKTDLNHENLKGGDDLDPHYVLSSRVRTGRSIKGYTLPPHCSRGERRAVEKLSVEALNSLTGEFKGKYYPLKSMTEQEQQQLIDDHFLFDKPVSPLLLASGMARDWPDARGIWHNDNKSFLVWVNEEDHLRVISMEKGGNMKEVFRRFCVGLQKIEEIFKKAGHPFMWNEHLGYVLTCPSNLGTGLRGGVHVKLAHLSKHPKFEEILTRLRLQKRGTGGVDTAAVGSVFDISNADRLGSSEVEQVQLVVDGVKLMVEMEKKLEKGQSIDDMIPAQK

[5] = system: malonate induced striatal lesions; assay: Malonate model of Huntington's disease: striatal lesion volume (Example 1); assay type: in vivo, rats
Experimental: Oral administration of creatine and its analogue cyclocreatine were examined to determine their ability to attenuate malonate lesions. Creatine was administered orally to rats in their feed at doses of 0.25-3.0% of the diet. Cyclocreatine was administered at 0.2-1.0%. Controls received unsupplemented otherwise identical diets. The compounds were administered for two weeks prior to the administration of malonate and then for a further week prior to sacrifice. Malonate was dissolved in distilled deionized water and the pH wad adjusted to 7.4 with 0.1 m HCl. Intrastriatal injections of 1.5 ul of malonate containing 3 μmol were made into the striatum at the level of the bregma 2.4 mm lateral to the midline and 4.5 mm ventral to the dura. Animals were sacrificed at 7 days by decapitation, and the brains were quickly removed and placed in ice cold 0.9% saline solution. Brains were sectioned at 2 mm intervals. Slices were then placed posterior side down in 2% 2,3,5-triphenyltetrazolium chloride. Slices were stained in the dark at room temperature for 30 minutes and then removed and placed in 4% paraformaldehyde, pH 7.3. Lesions, noted by pale staining, were evaluated on the posterior surface of each section using a Bioquant 4 system by an experienced histologist blinded to experimental conditions. These measurements have been validated by comparing them to measurements obtained on adjacent Nissl stain sections.

[6] = system: MPTP induced dopaminergic toxicity; assay: MPTP model for Parkinson's disease: striatal dopamine, DOPAC, HVA; assay type: in vivo, male Swiss Webster mice
Experimental: The effect of two representative creatine compounds, creatine and cyclocreatine, were evaluated using this model. Creatine and cyclocreatine were administered in the initial pilot experiment as 1% formulation in the feed of animals, and was administered for three weeks before MPTP treatment. MPTP was administered intraperitoneally at a dose of 15 mg/kg every 2 hours for five injections. The animals then remained on either creatine or cyclocreatine supplemented diets for 1 week before sacrifice. The mice examined were male Swiss Webster mice weighing 30-35 grams obtained from Taconic Farms. Control groups received either normal saline or MPTP hydrochloride alone. MPTP was administered in 0.1 ml of water. The MPTP was obtained from Research Biochemicals. Eight to twelve animals were examined in each group. Following sacrifice the two striata were rapidly dissected and placed in chilled 0.1 M perchloric acid. Tissue was subsequently sonicated, and aliquots were taken for protein quantification using a fluorometer assay. Dopamine, 3,4-dihydroxyphenylacetic acid (DOPAC), and homovanillic acid (HVA) were quantified by HPLC with 16 electrode electrochemical detection. Concentrations of dopamine and metabolites were expressed as nmol/mg protein. The statistical significance of differences was determined by one-way ANOVA followed by Fisher PLSDpost-hoc test to compare group means.
A dose response study was conducted where the creatine dose was 0.25%-3.0% of the diet and cyclocreatine 0.25-1.0% of the diet.

[7] = up to 1% of diet for 2 weeks or for over 4 weeks; cited from earlier work
[8] = feeding animals, e.g. 1% dietary; cited from earlier work
[9] = rats receiving dietary 1% cyclocreatine; cited from earlier work
[10] = cited from earlier work; remark: listed apart in the source
[11] = intravenous injection, up to 8 grams/day, patients with cardiac diseases; cited from earlier work
[12] = dose response study, 0.5% of the diet

## NC(=O)c1cccnc1 [nicotinamide]
[1]
  neuroprotective effect against malonate lesions (striatal lesion volume): did not reach significance
[2]
  ATP depletion produced by malonate in vivo: attenuated ATP depletion
  protection against lesions in the malonate animal model: dose dependent protection
[3]
  protection against dopamine depletion: effective in inhibiting moderate dopamine depletion

## COC1=C(OC)C(=O)C(C/C=C(\C)CC/C=C(\C)CC/C=C(\C)CC/C=C(\C)CC/C=C(\C)CC/C=C(\C)CC/C=C(\C)CC/C=C(\C)CC/C=C(\C)CCC=C(C)C)=C(C)C1=O [CoQ10, 2,3 dimethoxy-5 methyl-6-decaprenyl benzoquinone]
[2]
  ATP depletion produced by malonate in vivo: attenuated ATP depletion
  protection against lesions in the malonate animal model: dose dependent protection
MPTP toxicity
  protection against MPTP toxicity: significantly protect
[4]
  solubility in chloroform and carbon tetrachloride: very soluble
  solubility in water: insoluble in water

## N=C(N)N(CC(=O)O)CC1CO1 (centres unmarked) [epoxycreatine]
Creatine kinase
  inactivation of creatine kinase: completely and irreversibly inactivate

## isoepoxycreatine
Creatine kinase
  inactivation of creatine kinase: completely and irreversibly inactivate

## NC1=NCCN1CC(=O)O [cyclocreatine, 1-carboxymethyl-2-iminoimidazolidine]
[5]; 1% in the diet
  neuroprotection against malonate induced striatal lesions: significant
[5]; increasing doses in the diet (creatine 0.25-3%; cyclocreatine 0.2-1.0%)
  neuroprotection against malonate induced striatal lesions, dose response: dose dependent neuroprotective effects
[5]; oral supplementation in feed, 2 weeks before and 1 week after intrastriatal malonate 3 μmol
  protection against striatal malonate lesions: protected against striatal malonate lesions
[6]; 1% in feed, pilot experiment
  effect against MPTP induced depletions of homovanillic acid: effective
  neuroprotection against MPTP induced dopamine depletions: significant neuroprotection
  neuroprotective effect compared with creatine: greater than that seen with creatine alone
[6]; 1% in feed, pilot experiment, MPTP 15 mg/kg i.p. x5
  protection against DOPAC depletions induced by MPTP: significantly protected
[6]; dose response study (creatine 0.25%-3.0%; cyclocreatine 0.25-1.0% of the diet)
  effects on the dopamine metabolites HVA and DOPAC: neuroprotection effects
[6]; [12]
  neuroprotection against MPTP induced dopamine depletions: significant protection
  protection against HVA depletion: not seen
[6]; dose response study, 1.0% of the diet
  neuroprotection against MPTP induced dopamine depletions: significant protection
[7]
  gross adverse effects: without gross adverse effects
[8]
  accumulation in organs: accumulation of cyclocreatine in different organs in mM concentrations
[9]
  tissue uptake: taken up by muscle, heart and brain
[10]; diet containing 1% cyclocreatine, in the presence of antibiotics
  mortality: without significant mortality
[10]; in vivo
  growth versus control chicks: grew more slowly

## CC(C)(C)[N+]([O-])=Cc1ccccc1S(=O)(=O)O [N-tert-a-(2-sulfophenyl) nitrone, reference compound]
[3]
  protection against dopamine depletion: effective in inhibiting moderate dopamine depletion

## N-phosphoryl creatine [creatine phosphate]
[11]
  adverse side effects: no adverse side effects
